From patent US20120301468A1, “ANTI-MN ANTIBODIES AND METHODS OF USING SAME” (BAYER HEALTHCARE LLC, priority 2005, published 2012)
Blank lines part the entries; values can stand above or below the compound they belong to. Non-standard residues stand in square brackets, D forms with d. Residues, ends and D or L forms follow the SMILES beside them. *: point of attachment. Dolaproine = CO[C@@H]([C@@H]1CCCN1)[C@@H](C)C(=O)O; Dil = CC[C@H](C)[C@H](NC)[C@@H](CC(=O)O)OC; X1 = C[C@@H](N*)[C@@H](O)c1ccccc1; NMeV = CN[C@H](C(=O)O)C(C)C

Assays:
[1] = tested on: HCT-15 multi-drug resistant (P-gp) CRC xenograft; test: HCT-15 multi-drug resistant xenograft model; assay type: in vivo, NCr nu/nu mice; conditions: HCT-15 MDR model
Procedure: To examine the effect of 3ee9/MMAE in a multi-drug resistance model, female NCr nu/nu mice were implanted subcutaneously (s.c.) with 5×10^6 HCT-15 cells. HCT-15 is a multi-drug resistant (MDR) line that over-expresses P-glycoprotein (P-gp). […] 3ee9/MMAE, Taxol, and Gemcitabine were administered when mice had established tumors with mean weight of ˜150 mg. Gemcitabine, a pyrimidine analog that is not a P-gp substrate was used as a positive control.

[2] = tested on: HT-29 human CRC xenograft; test: HT-29 subcutaneous xenograft model; assay type: in vivo, athymic NCr (nu/nu) mice; conditions: HT-29; for % Inhibition (1-T/D)*100 (Day 18) / Percent Regressions: Q4D × 3
Procedure: When tumors reached an average size of ˜120 mg (5 days), treatment was initiated. […] In addition, MMAE was assessed as a free drug at a dose of 0.1, 0.2 and 1 mg/kg. The 0.1 and 0.2 mg/Kg doses of MMAE represent equivalent amounts of this drug to those present on 5 and 10 mg/Kg 3ee9/MMAE respectively.
Anti-tumor effect of 3ee9/MMAE was also assessed in varying schedules, i.e., once a week dosing for total of two doses (Q7Dx2, FIG. 20) and a single dose at the time of staging (Q1Dx1, FIG. 21). In both schedules, 3ee9/MMAE was dosed at 0.625, 1.25, 2.5, 5 and 10 mg/kg.

Colo-205 CRC xenograft = test: Colo-205 subcutaneous xenograft model; conditions: Colo-205
Excerpt: The in vivo anti-tumor effect of 3ee9/MMAE was examined in 6 different human xenograft tumor models. These models were established through subcutaneous implantation of human tumor cells into female athymic NCr (nu/nu) mice (Taconic, N.Y.). The human tumor xenograft models evaluated included the MaTu human mammary carcinoma model, the HT-29 and Colo-205 human colo-rectal carcinoma (CRC) models, PC3MM2 prostate carcinoma model, the HCT-15 multi-drug resistant (P-gp) CRC model, and the MiaPaCa2 human pancreatic model. PBS was used as a vehicle, and dosing solutions were prepared fresh daily. The dosing volume was 0.1 mL/10 g (10 mL/kg).
The length and width of each tumor were measured using an electronic caliper 2-3 times per week, and tumor weights (mg) were calculated based on the formula of [length (mm)×width (mm)^2]/2. All data, including daily observations, obtained throughout the course of the study were documented in Anti-tumor Data Acquisition System (ADAS). […] Tumor growth inhibition (TGI) was calculated as (1-T/C)×100, where T=final tumor weights from a treated group after the last dose, and C=final tumor weights from the control group after the last dose. In addition, anti-tumor efficacy was measured as the incidence of responses (or responders or regressions) defined as tumors with ≦50% of their initial size. A minimum duration of 7 days is required for a response to be considered durable.
The anti-tumor activity of 3ee9/MMAE was next evaluated against human prostate (PC-3 mm2) and CRC (Colo-205) tumor xenografts. Female NCr nu/nu mice were implanted subcutaneously (s.c.) either with 5×10^6 PC3 mm2 or Colo-205 cells. Treatment was initiated when tumors were of an average size of approximately 125-150 mg. The general health of mice was monitored and recorded daily. Tumor dimensions and body weights were recorded twice a week starting with the first day of treatment.
In the PC3 mm2 and Colo-205 studies, 3ee9/MMAE was administered intravenously (i.v.) once every 4th day for a total of 3 injections (Q4Dx3) at doses of 1, 3, 10 and 30 mg/kg and 1.25, 2.5, 5 and 10 mg/kg, respectively.
The feasibility of using 3ee9/MMAE in conjunction with other cancer chemotherapeutic agents was investigated. Xeloda® is used as first line treatment of patients with metastatic colorectal carcinoma. The activity and tolerability of combined therapy using 3ee9/MMAE and Xeloda® was evaluated. 3ee9/MMAE was administered i.v. on a Q4Dx3 schedule and at dose levels of 1.25, 2.5 and 10 mg/kg. Xeloda® was administered orally once daily for 9 days at dose levels of 250 and 500 mg/kg.

MN [3] = molecular target: T1, MN (Homo sapiens, UniProt Q16790); test: Surface plasmon resonance (BIAcore) binding to MN protein; parameters: The MN protein represents the entire extra-cellular domain of the protein with a C-terminal histag for purification; His tag (C); made in house; host or cells: HKB-11 (mammalian cell line); conditions: read-out: kD for purified MN protein
Procedure: The binding interactions between MN protein and the antibodies of this invention were analyzed using surface plasmon resonance technology on a BIAcore 3000 instrument (BIAcore, Uppsala, Sweden). For the binding of full-length IgGs (1e4, 1aa1, and 3ee9), goat anti-human IgG Fc was covalently coupled to the CM5 biosensor chip at high density using a standard amine coupling kit (BIAcore, Uppsala, Sweden). A capture assay was then used to bind these IgG to the anti-human IgG Fc-immobilized surface, aiming for a 300 response unit BIAcore signal. […] After ligand binding, the flow rate was then increased to 25 μl/min and various concentrations of MN analyte (e.g., range of 50 nM to 1 nM) were flowed over the surface for 10 minutes such that the association phase could be monitored. […] The binding of Fabs to MN was similarly determined except that an anti-human-Fab IgG was immobilized onto the chip and used to capture the Fabs prior to the assessment of MN binding.
Binding interactions between HKB11-expressed human MN protein and human full-length anti-MN MAbs were analyzed using surface plasmon resonance technology on a BIAcore 3000 instrument (BIAcore, Uppsala, Sweden). […] After ligand binding, flow rate was increased to 25 ul/min and MN analyte (50 nM to 1 nM) was flowed over the surface for 10 min such that the association phase could be monitored. […]

MN [4] = molecular target: T1, MN; test: Immunoprecipitation of biotinylated cell surface proteins; assay type: binding; parameters: incubated with cell lysates of MN+ (Pc3 mm2) and MN− (DLD-1) cell lines that had been selectively labeled with biotin; endogenous in cells; host or cells: PC-3 mm2 (MN+); DLD-1 as the MN- control; conditions: biotin-labeled lysates of MN+ (Pc3 mm2) and MN− (DLD-1) cell lines
Procedure: To further explore specificity, various candidate antibodies including the antibody portion of 3ee9/MMAE (3ee9) and the reference antibody G250 were incubated with cell lysates of MN+ (Pc3 mm2) and MN− (DLD-1) cell lines that had been selectively labeled with biotin. Complexes between the antibodies and cellular proteins were immuno-precipitated and the co-precipitated antigens visualized using immunoblots developed with enzyme-linked streptavidin.

Compound: Nc1ccn([C@@H]2O[C@H](CO)[C@@H](O)C2(F)F)c(=O)n1 [Gemcitabine]
- anti-tumor activity ([1]; 120 mg/kg, i.p., QDx10): highly active

Compound: CC[C@H](C)[C@@H]([C@@H](CC(=O)N1CCC[C@H]1[C@H](OC)[C@@H](C)C(=O)N[C@H](C)[C@@H](O)c1ccccc1)OC)N(C)C(=O)[C@@H](NC(=O)[C@@H](NC)C(C)C)C(C)C [MMAE, Monomethylauristatin E, reference compound] (H-[NMeV]V[Dil][Dolaproine]-X1)
- % Inhibition (1-T/D)*100 (Day 18) ([2]; 0.1 mg/kg): 27%
- Percent Regressions ([2]; 0.1 mg/kg): 0%
- % Inhibition (1-T/D)*100 (Day 18) ([2]; 0.2 mg/kg): 60%
- Percent Regressions ([2]; 0.2 mg/kg): 0%
- % Inhibition (1-T/D)*100 (Day 18) ([2]; 1 mg/kg): Toxic
- tumor responses ([2]; free drug): did not induce any tumor responses
- effect in inhibiting growth ([2]; free drug 0.1 mg/kg): no significant effect
- TGI ([2]; free drug 0.2 mg/kg): 60%
- lethality ([2]; free drug 1 mg/kg): 50%
- tolerability ([2]; free drug 1 mg/kg): considered toxic
- tolerability ([2]; free drug 0.1 and 0.2 mg/kg): well tolerated with non-significant, minimal weight loss

Compound: CC(=O)O[C@H]1C(=O)[C@@]2(C)[C@H]([C@H](OC(=O)c3ccccc3)[C@]3(O)C[C@H](OC(=O)[C@H](O)[C@@H](NC(=O)c4ccccc4)c4ccccc4)C(C)=C1C3(C)C)[C@]1(OC(C)=O)CO[C@@H]1C[C@@H]2O [Taxol®]
- anti-tumor effect [1]: failed to produce any significant anti-tumor effect

Compound: CCCCCOC(=O)Nc1nc(=O)n([C@@H]2O[C@H](C)[C@@H](O)[C@H]2O)cc1F [Xeloda, reference compound]
- % Inhibition (T/C) (d 17) (Colo-205 CRC xenograft; 250 mg/kg/inj Q1D × 9 PO): 78%
- % Regressions (Colo-205 CRC xenograft; 250 mg/kg/inj Q1D × 9 PO): 0%
- % Weight Loss (d 17) (Colo-205 CRC xenograft; 250 mg/kg/inj Q1D × 9 PO): −0.5%
- % Inhibition (T/C) (d 17) (Colo-205 CRC xenograft; 500 mg/kg/inj Q1D × 9 PO): 86.1%
- % Regressions (Colo-205 CRC xenograft; 500 mg/kg/inj Q1D × 9 PO): 0%
- % Weight Loss (d 17) (Colo-205 CRC xenograft; 500 mg/kg/inj Q1D × 9 PO): −5.6%
- TGI (Colo-205 CRC xenograft; alone 250 mg/kg orally once daily for 9 days): 78%
- TGI (Colo-205 CRC xenograft; alone 500 mg/kg orally once daily for 9 days): 86%
- animals showing regressions (Colo-205 CRC xenograft; both dose groups (250 and 500 mg/kg)): zero

- Kd (MN [3]): 5.3 nM
Compound: G250: MN antibody G250, a humanized IgG1 antibody, (Wilex), used as a reference [reference compound]
- co-immunoprecipitated proteins (specificity) (MN [4]): selectively bound and co-immunoprecipitated with a single band of the same size as MN
